According to PMC4658139 (PLoS ONE, 2015):
Read-outs that look alike come from different tables or passages of the source.

Tests used:
PBCEC monolayer [1] = tested on: PBCEC monolayer
PBCEC monolayer [2] = assay type: cell-based, porcine
[3] = tested on: porcine brain capillary endothelial cells (PBCEC)
[4] = pig, in vivo, 0.6 mg; cited from earlier work
[5] = pig, in vivo; cited from earlier work
Sprague-Dawley rats [6] = conditions: rat, in vivo, po; cited from earlier work
PBCEC monolayer [7] = conditions: pig
dendric cells = conditions: cited from earlier work
in vitro = conditions: pig
Sprague-Dawley rats [8] = conditions: rat, in vivo, po; cited from earlier work; remark: listed apart in the source
macrophages = conditions: cited from earlier work
PBCEC monolayer [9] = conditions: pig; remark: listed apart in the source
[10] = tested on: normal human astrocytes (NHA); conditions: read-out: IC50, cytotoxic effects; cited from earlier work

CC(=O)O[C@@H]1C[C@]2(C)[C@@]3(CO)[C@H](O)C(=O)C(C)=C[C@H]3O[C@H]1[C@@]21CO1 [3-AcDON, 3-acetyldeoxynivalenol]
concentration in the apical compartment (PBCEC monolayer [1]; pig): 174 ± 20 nM | concentration in the basolateral compartment (PBCEC monolayer [1]; pig): 198 ± 16 nM | enrichment in one compartment / active transport, in words (PBCEC monolayer [1]; pig): an active transfer or a noteworthy enrichment of DON or 3-AcDON can be excluded | change of electrical capacitance c CL, in words (PBCEC monolayer [2]): Neither 3-AcDON, nor MON showed significant changes | relative TEER after 48 h (PBCEC monolayer [2]): 63±9% | effect in CCK-8 assay (dehydrogenase activity), in words [3]: significant increase in dehydrogenase activity

CC1=C[C@H]2O[C@@H]3[C@H](O)C[C@](C)([C@@]2(CO)[C@H](O)C1=O)[C@]31CO1 [DON, deoxynivalenol]
enrichment in one compartment / active transport, in words (PBCEC monolayer [1]): no enrichment in the apical or the basolateral compartment was detected | concentration in the apical compartment (PBCEC monolayer [1]; pig): 211 ± 15 nM | concentration in the basolateral compartment (PBCEC monolayer [1]; pig): 199 ± 14 nM | electrical capacitance c CL after 48 h (PBCEC monolayer [2]): 81±2% | effect in CCK-8 assay (dehydrogenase activity), in words [3]: significant increase in dehydrogenase activity | systemic bioavailability [4]: 48–65% | time of maximum concentration in CSF and blood [5]: 4.5 h

O=c1cc(O)c1=O [MON, moniliformin]
LD50 cut-off value (Sprague-Dawley rats [6]): 25 mg/kg body weight | administered dose detected in urine (Sprague-Dawley rats [6]): 38% | total recovery in feces (Sprague-Dawley rats [6]): less than 1% | total recovery in urine (Sprague-Dawley rats [6]): 42% | enrichment in one compartment / active transport, in words (PBCEC monolayer [1]): not enriched in any compartment | concentration in the apical compartment (PBCEC monolayer [1]; pig): 237 ± 23 nM | concentration in the basolateral compartment (PBCEC monolayer [1]; pig): 228 ± 27 nM | amount detected in the basolateral compartment (PBCEC monolayer [7]): 27±6% | amount recovered in the apical compartment (PBCEC monolayer [7]): 76±12% | reduction of cellular viability (dendric cells): 20% | Papp A→B (in vitro): 1.07 ± 0.23 ×10⁻⁶ cm/s | administered dose detected in feces (Sprague-Dawley rats [8]): 2% | administered dose excreted via urine (Sprague-Dawley rats [8]): 20.2-31.5% | lowest observed adverse effect level (LOAEL) (Sprague-Dawley rats [8]): 3 mg/kg body weight | effect on viability of macrophages, in words (macrophages): does not reduce the viability of macrophages | change of electrical capacitance c CL, in words (PBCEC monolayer [2]): Neither 3-AcDON, nor MON showed significant changes | relative TEER after 48 h (PBCEC monolayer [2]): 94±15% | p c(14C sucrose), sucrose permeability of the monolayer after mycotoxin incubation (PBCEC monolayer [9]): 0.19±0.05 | effect on cellular viability, in words [3]: no significant effects on the cellular viability

CC(=O)OC[C@]12C[C@H](OC(=O)CC(C)C)C(C)=C[C@H]1O[C@@H]1[C@H](O)[C@@H](OC(C)=O)[C@@]2(C)[C@]12CO2 [T-2 toxin, reference compound]
IC50 [10]: 24 ± 4.5 nM | cellular viability ([3]; 10 µM): < 2%
